Experimental data from patent publication EP4707280A1, “1,4-CINEOLE DERIVATIVE AND INTERMEDIATE THEREOF, HERBICIDE CONTAINING SAID DERIVATIVE AS ACTIVE INGREDIENT, METHOD FOR USING HERBICIDE, AND METHOD FOR PREPARING AGROCHEMICAL COMPOSITION” (HOKKO CHEMICAL INDUSTRY CO., LTD., priority 2023, dated 2024).

How the values were obtained:
Assay type in all cases: in vivo
Echinochloa crus-galli [1] = assay: Test Example 7: herbicidal effect test by soil application in upland field (low dose); conditions: 7.5 g per 10 ares, sprayed one day after sowing, 14 days after application
Outline: (§1)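 Pre-emergence soil application: upland alluvial loam pots sown with weed seeds mixed into the top 1 cm; one day after sowing, a water-diluted emulsifiable concentrate was sprayed on the soil at 100 L per 10 a, delivering 7.5 g active ingredient per 10 a. Weed inhibition rate (%) scored 14 days after application, duplicate pots.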

Digitaria ciliaris [2] = assay: as above; conditions: 7.5 g per 10 ares, sprayed one day after sowing, 14 days after application
Outline: as §1

Digitaria ciliaris [3] = assay: Test Example 4: herbicidal effect test by stem and leaf treatment in upland field; conditions: 120 g per 10 ares, sprayed seven days after sowing, upland soil, 14 days after application; for inhibition at 1200 g/ha: Digitaria ciliaris, read-out: weed inhibition rate
[4] = test system: Echinochloa crus-galli var. formosensis; assay: Test Example 6: herbicidal effect test by application during growth period of paddy rice (low dose); conditions: 7.5 g per 10 ares, applied seven days after sowing, flooded pots, 14 days after application; for inhibition at 75 g/ha: Echinochloa crus-galli, read-out: weed inhibition rate
Outline: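 Paddy soil in flooded Wagner pots (about 3 cm water), weeds sown at 0–1 cm, 30 seeds each, grown in a glass greenhouse. Seven days after sowing, water-diluted emulsifiable concentrate was dropped into the water at 7.5 g active ingredient per 10 ares. Weed inhibition rate (%) was scored 14 days after application, in duplicate.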

Monochoria vaginalis [5] = assay: Test Example 2: herbicidal effect test by application during growth period of paddy rice; conditions: 120 g per 10 ares, applied seven days after sowing, flooded pots, 14 days after application; for inhibition at 1200 g/ha: Pontederia vaginalis, read-out: weed inhibition rate
Outline: (§2)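 Paddy soil in Wagner pots was puddled with N:P:K 16:16:16 fertilizer, sown with 30 weed seeds per species at 0–1 cm and flooded to about 3 cm. Seven days after sowing, a water-diluted emulsifiable concentrate was dropped onto the water at 120 g active ingredient per 10 ares. Weed inhibition (%) was scored at 14 days, in duplicate.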

Scirpus juncoides [6] = assay: as above; conditions: 120 g per 10 ares, applied seven days after sowing, flooded pots, 14 days after application; for inhibition at 1200 g/ha: Schoenoplectiella juncoides, read-out: weed inhibition rate
Outline: as §2

[7] = test system: Echinochloa crus-galli var. formosensis; assay: as above; conditions: 120 g per 10 ares, applied seven days after sowing, flooded pots, 14 days after application; for inhibition at 1200 g/ha: Echinochloa crus-galli, read-out: weed inhibition rate
Outline: as §2

Monochoria vaginalis [8] = assay: Test Example 1: herbicidal effect test by soil application in paddy rice; conditions: 120 g active ingredient per 10 ares, applied immediately after sowing, flooded pots, 14 days after application; for pest or weed control at 1200 g/ha: Pontederia vaginalis, soil, 336 h, read-out: weed inhibition rate
Experimental: (§3) Wagner pots with an area of […] were filled with paddy soil, followed by addition of water and incorporation of chemical fertilizer (N:P:K = 16:16:16), after which puddling was performed. After that, seeds of Echinochloa crus-galli var. formosensis, broad-leaved weeds (Lindernia pyxidaria and Monochoria vaginalis), and Scirpus juncoides were sown at a depth of 0 cm to 1 cm, 30 seeds each. Immediately after sowing, the pots were flooded and a water depth of approximately 3 cm was maintained. Subsequent management was conducted in a glass greenhouse. Immediately thereafter, an emulsifiable concentrate prepared according to Formulation Example 5 using the compound shown below was diluted with water, and a specified amount of the diluted solution was applied by dropper. The amount of the active ingredient to be applied was equivalent to 120 g per 10 ares.
(§4) The present test was conducted in duplicate for each chemical concentration group, and the weed inhibition rate (%) was determined 14 days after chemical application using the following formula (Math. 1). [formula]

Echinochloa crus-galli [9] = assay: Test Example 8: herbicidal effect test by stem and leaf treatment in upland field (low dose); conditions: 7.5 g per 10 ares; sprayed seven days after sowing, upland soil; 14 days after application
Digitaria ciliaris [10] = assay: as above; conditions: 7.5 g per 10 ares, sprayed seven days after sowing, upland soil, 14 days after application
[11] = test system: Echinochloa crus-galli var. formosensis; assay: Test Example 5: herbicidal effect test by soil application in paddy rice (low dose); conditions: 7.5 g per 10 ares, applied immediately after sowing, flooded pots, 14 days after application; for inhibition at 75 g/ha: Echinochloa crus-galli, soil, 336 h, read-out: weed inhibition rate
Outline: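 Paddy soil in Wagner pots was fertilized (N:P:K 16:16:16), puddled, sown with 30 seeds per weed species at 0–1 cm, then flooded to ~3 cm in a glass greenhouse. Emulsifiable concentrate diluted in water was dropper-applied into floodwater immediately, at 7.5 g active ingredient per 10 ares; duplicates, scored at 14 days.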

Echinochloa crus-galli [12] = assay: Test Example 4: herbicidal effect test by stem and leaf treatment in upland field; conditions: 120 g per 10 ares, sprayed seven days after sowing, upland soil, 14 days after application; for inhibition at 1200 g/ha: Echinochloa crus-galli, read-out: weed inhibition rate
Echinochloa crus-galli [13] = assay: Test Example 3: herbicidal effect test by soil application in upland field; conditions: 120 g per 10 ares, sprayed one day after sowing, 14 days after application; for inhibition at 1200 g/ha: Echinochloa crus-galli, read-out: weed inhibition rate
Outline: (§5)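 Pre-emergence test: seeds mixed into top 1 cm of alluvial loam upland soil in pots; emulsifiable concentrate diluted in water sprayed on soil one day after sowing at 100 L/10 a, 120 g a.i./10 a. Weed inhibition rate (%) scored at 14 days, in duplicate.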

Digitaria ciliaris [14] = assay: as above; conditions: 120 g per 10 ares, sprayed one day after sowing, 14 days after application; for inhibition at 1200 g/ha: Digitaria ciliaris, read-out: weed inhibition rate
Outline: as §5

Scirpus juncoides [15] = assay: Test Example 1: herbicidal effect test by soil application in paddy rice; conditions: 120 g active ingredient per 10 ares, applied immediately after sowing, flooded pots, 14 days after application; for pest or weed control at 1200 g/ha: Schoenoplectiella juncoides, soil, 336 h, read-out: weed inhibition rate
Outline: (§6)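 Soil-applied test under flooded paddy conditions (~3 cm water) in a glass greenhouse. Seeds were sown shallow (0–1 cm, 30 per species), then compound was dripped in as diluted emulsifiable concentrate at 120 g a.i./10 a.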

[16] = test system: Echinochloa crus-galli var. formosensis; assay: as above; conditions: 120 g active ingredient per 10 ares, applied immediately after sowing, flooded pots, 14 days after application; for pest or weed control at 1200 g/ha: Echinochloa crus-galli, soil, 336 h, read-out: weed inhibition rate
Outline: as §6

Amaranthus viridis = assay: Test Example 3: herbicidal effect test by soil application in upland field; conditions: 120 g per 10 ares, sprayed one day after sowing, 14 days after application; for inhibition at 1200 g/ha: Amaranthus viridis, read-out: weed inhibition rate
Outline: as §5

Scirpus juncoides [17] = assay: Test Example 5: herbicidal effect test by soil application in paddy rice (low dose); conditions: Schoenoplectiella juncoides, 336 h, 7.5 g per 10 ares, applied immediately after sowing, flooded pots, 14 days after application, read-out: weed inhibition rate
Experimental: as §4
as §3, with “(Monochoria” for “(Lindernia pyxidaria and Monochoria”, “7.5” for “120”
The present test was conducted in duplicate for each chemical concentration group, and the herbicidal effect was evaluated 14 days after chemical application using the same criteria as in Test Example 1.

CC(C)[C@]12C[C@@H](OCc3ccccc3F)[C@](C)(C[C@@H]1Cl)O2 [1-12]
≥ 80%: weed inhibition rate (Echinochloa crus-galli [1]) | weed inhibition rate (Digitaria ciliaris [2]) | weed inhibition rate (Digitaria ciliaris [3]) | weed inhibition rate [4] | weed inhibition rate (Monochoria vaginalis [5]) | weed inhibition rate (Scirpus juncoides [6]) | weed inhibition rate [7] | weed inhibition rate (Monochoria vaginalis [8]) | weed inhibition rate (Echinochloa crus-galli [9]) | weed inhibition rate (Digitaria ciliaris [10]) | weed inhibition rate [11] | weed inhibition rate (Echinochloa crus-galli [12]) | weed inhibition rate (Echinochloa crus-galli [13]) | weed inhibition rate (Digitaria ciliaris [14]) | weed inhibition rate (Scirpus juncoides [15]) | weed inhibition rate [16]

CCOC(C)O[C@H]1C[C@]2(C)O[C@@]1(C(C)C)C[C@H]2OCc1ccccc1F (stereo partly drawn) [1-213, (1R,28,4S,5R)-2-(1-ethoxyethoxy)-5-((2-fluorobenzyl)oxy)-1-isopropyl-4-methyl-7-oxabicyclo[2.2.1]heptane]
≥ 80%: weed inhibition rate (Echinochloa crus-galli [1]) | weed inhibition rate (Digitaria ciliaris [2]) | weed inhibition rate (Digitaria ciliaris [3]) | weed inhibition rate [4] | weed inhibition rate (Scirpus juncoides [6]) | weed inhibition rate [7] | weed inhibition rate (Monochoria vaginalis [8]) | weed inhibition rate (Echinochloa crus-galli [9]) | weed inhibition rate [11] | weed inhibition rate (Echinochloa crus-galli [12]) | weed inhibition rate (Echinochloa crus-galli [13]) | weed inhibition rate (Digitaria ciliaris [14]) | weed inhibition rate (Amaranthus viridis) | weed inhibition rate (Scirpus juncoides [15]) | weed inhibition rate [16]

CC(C)[C@]12C[C@@H](OCCOCc3ccccc3)[C@](C)(C[C@@H]1Br)O2 [1-725, (1S,2R,4R,5S)-5-bromo-1-methyl-2-(2-phenylmethoxyethoxy)-4-isopropyl-7-oxabicyclo[2.2.1]heptane]
≥ 80%: inhibition at 1200 g/ha [7] | inhibition at 1200 g/ha (Echinochloa crus-galli [12]) | inhibition at 1200 g/ha (Amaranthus viridis)

CCC[C@@H]1C[C@]2(C)O[C@@]1(C(C)C)C[C@H]2OCc1ccccc1F [1-914, (1S,2R,4R,5R)-2-[(2-fluorophenyl)methoxy]-1-methyl-4-isopropyl-5-propyl-7-oxabicyclo[2.2.1]heptane]
≥ 80%: inhibition at 1200 g/ha (Digitaria ciliaris [3]) | inhibition at 75 g/ha [4] | inhibition at 1200 g/ha (Monochoria vaginalis [5]) | inhibition at 1200 g/ha (Scirpus juncoides [6]) | inhibition at 1200 g/ha [7] | pest or weed control at 1200 g/ha (Monochoria vaginalis [8]) | inhibition at 75 g/ha [11] | inhibition at 1200 g/ha (Echinochloa crus-galli [12]) | inhibition at 1200 g/ha (Echinochloa crus-galli [13]) | inhibition at 1200 g/ha (Digitaria ciliaris [14]) | pest or weed control at 1200 g/ha (Scirpus juncoides [15]) | pest or weed control at 1200 g/ha [16]

CC(C)[C@]12C[C@@H](OCc3ccccc3F)[C@](C)(CC1C1CCCC1)O2 (stereo partly drawn) [1-920, (1R,4S,5R)-2-cyclopentyl-5-[(2-fluorobenzyl)oxy]-1-isopropyl-4-methyl-7-oxabicyclo[2.2.1]heptane]
≥ 80%: inhibition at 1200 g/ha (Digitaria ciliaris [3]) | inhibition at 75 g/ha [4] | inhibition at 1200 g/ha (Monochoria vaginalis [5]) | inhibition at 1200 g/ha (Scirpus juncoides [6]) | inhibition at 1200 g/ha [7] | pest or weed control at 1200 g/ha (Monochoria vaginalis [8]) | inhibition at 75 g/ha [11] | inhibition at 1200 g/ha (Echinochloa crus-galli [12]) | pest or weed control at 1200 g/ha (Scirpus juncoides [15]) | pest or weed control at 1200 g/ha [16]

CC(C)[C@]12C[C@@H](OCc3ccccc3F)[C@](C)(CC1c1cccc(F)c1)O2 (stereo partly drawn) [1-923, (1S,2R,4R)-2-((2-fluorobenzyl)oxy)-5-(3-fluorophenyl)-4-isopropyl-1-methyl-7-oxabicyclo[2.2.1]heptane]
≥ 80%: inhibition at 75 g/ha (Scirpus juncoides [17]) | inhibition at 1200 g/ha [7] | inhibition at 1200 g/ha (Echinochloa crus-galli [12]) | inhibition at 1200 g/ha (Echinochloa crus-galli [13]) | pest or weed control at 1200 g/ha (Scirpus juncoides [15]) | pest or weed control at 1200 g/ha [16]

CC(C)[C@]12C[C@@H](OCc3ccccc3F)[C@](C)(CC1CCc1ccccc1)O2 (stereo partly drawn) [1-929, (1S,2R,4R)-2-((2-fluorobenzyl)oxy)-4-isopropyl-1-methyl-5-phenethyl-7-oxabicyclo[2.2.1]heptane]
≥ 80%: inhibition at 1200 g/ha (Digitaria ciliaris [3]) | inhibition at 75 g/ha [4] | inhibition at 1200 g/ha (Monochoria vaginalis [5]) | inhibition at 1200 g/ha [7] | pest or weed control at 1200 g/ha (Monochoria vaginalis [8]) | inhibition at 75 g/ha (Digitaria ciliaris [10]; Digitaria ciliaris, read-out: weed inhibition rate) | inhibition at 75 g/ha [11] | inhibition at 1200 g/ha (Echinochloa crus-galli [12]) | inhibition at 1200 g/ha (Echinochloa crus-galli [13]) | inhibition at 1200 g/ha (Digitaria ciliaris [14]) | pest or weed control at 1200 g/ha (Scirpus juncoides [15]) | pest or weed control at 1200 g/ha [16]

COc1ccc(CO[C@@H]2C[C@]3(C(C)C)O[C@@]2(C)CC3=O)cc1 [2-346, (1R,4S,5R)-1-isopropyl-5-((4-methoxybenzyl)oxy)-4-methyl-7-oxabicyclo[2.2.1]heptan-2-one]
≥ 80%: inhibition at 1200 g/ha [7] | inhibition at 1200 g/ha (Amaranthus viridis)
